# Article PMC12042115 (mLife, 2025)
# Where two headings read alike, the source gives them in different places.
# Tested on: wild‐type BCG cells
# Type: cell-based, M. bovis BCG
# Conditions: for Mean_Ratio (GDI5755_3d vs DMSO_3d): down-regulated, 3 d; for Mean Ratio: GDI5755_2d vs DMSO_2d; for Mean Ratio / Mean Ratio (GDI5755_2d vs DMSO_2d): up-regulated; for Mean Ratio (GDI5755_2d vs DMSO_2d): 2d
compound,measurement,setting,value
O=C(Oc1ccc(Cl)cc1)c1ccc(N2CCOCC2)c([N+](=O)[O-])c1 [GDI‐5755],Mean_Ratio (GDI5755_3d vs DMSO_3d),"protein A0A0H3M2P5, BCG_0207 (Rv0170), MCE-family protein mce1B",0.7
same,Mean Ratio,protein A0A0H3M2Q0 Probable conserved mce associated membrane protein,1.29
same,Mean Ratio,protein A0A0H3M2Q5 Probable conserved transmembrane protein,1.31
same,Mean Ratio (GDI5755_2d vs DMSO_2d),protein A0A0H3M2T8 Possible conserved membrane protein mmpS5,1.38
same,Mean Ratio,protein A0A0H3M3A7 3-hydroxyacyl-CoA dehydrogenase,1.27
same,Mean_Ratio (GDI5755_3d vs DMSO_3d),"protein A0A0H3M3B6, BCG_1227 (Rv1165), Large ribosomal subunit assembly factor BipA",0.749
same,Mean_Ratio (GDI5755_3d vs DMSO_3d),"protein A0A0H3M3D2, BCG_0932 (Rv0880), Possible transcriptional regulatory protein (Possibly marR-family)",0.738
same,Mean_Ratio (GDI5755_3d vs DMSO_3d),"protein A0A0H3M3H3, BCG_1314 (Rv1254), Probable acyltransferase",0.748
same,Mean Ratio,protein A0A0H3M3I2 Uncharacterized protein,1.28
same,Mean Ratio,protein A0A0H3M3J3 Probable periplasmic oligopeptide-binding lipoprotein oppA,1.27
same,Mean Ratio (GDI5755_2d vs DMSO_2d),protein A0A0H3M3L0 Conserved hypothetical transmembrane protein,1.38
same,Mean Ratio,protein A0A0H3M3S8 Lipoarabinomannan carrier protein LprG,1.31
same,Mean Ratio,protein A0A0H3M3T4 Possible conserved membrane protein,1.31
same,Mean Ratio,protein A0A0H3M3X9 Probable cation transporter P-type atpase D ctpD,1.31
same,Mean_Ratio (GDI5755_3d vs DMSO_3d),"protein A0A0H3M4A0, BCG_1633 (Rv1595), L-aspartate oxidase",0.7
same,Mean Ratio (GDI5755_2d vs DMSO_2d),protein A0A0H3M4G0 Lipoprotein lprB,1.35
same,Mean_Ratio (GDI5755_3d vs DMSO_3d),"protein A0A0H3M4I9, BCG_1379c (Rv1318c), Possible adenylate cyclase",0.7
same,Mean_Ratio (GDI5755_3d vs DMSO_3d),"protein A0A0H3M4L2, BCG_1760c (Rv1721c), Antitoxin VapB12",0.7
same,Mean Ratio,protein A0A0H3M4W6 DUF1490 family protein,1.26
same,Mean_Ratio (GDI5755_3d vs DMSO_3d),"protein A0A0H3M5A9, BCG_1670c (Rv1632c), DUF402 domain-containing protein",0.74
same,Mean Ratio (GDI5755_2d vs DMSO_2d),protein A0A0H3M5C0 RNA polymerase sigma factor,1.33
same,Mean_Ratio (GDI5755_3d vs DMSO_3d),"protein A0A0H3M5G5, BCG_1251, alternative RNA polymerase sigma factor sigI",0.7
same,Mean Ratio,protein A0A0H3M5I2 Uncharacterized protein,1.28
same,Mean Ratio,protein A0A0H3M5J1 Probable serine protease htrA,1.26
same,Mean Ratio (GDI5755_2d vs DMSO_2d),protein A0A0H3M5K5 DUF4129 domain-containing protein,1.38
same,Mean_Ratio (GDI5755_3d vs DMSO_3d),"protein A0A0H3M5K7, BCG_1305c (Rv1245c), Probable short-chain type dehydrogenase/reductase",0.7
same,Mean Ratio (GDI5755_2d vs DMSO_2d),protein A0A0H3M5K8 Methylenetetrahydrofolate reductase,1.33
same,Mean_Ratio (GDI5755_3d vs DMSO_3d),"protein A0A0H3M5L3, BCG_1311c (Rv1251c), Uncharacterized protein",0.76
same,Mean Ratio,protein A0A0H3M5L8 1-acylglycerol-3-phosphate O-acyltransferase,1.26
same,Mean Ratio (GDI5755_2d vs DMSO_2d),protein A0A0H3M5V5 Possible flavoprotein,1.33
same,Mean Ratio (GDI5755_2d vs DMSO_2d),protein A0A0H3M5V7 Possible transmembrane protein,1.32
same,Mean Ratio,protein A0A0H3M5V9 DUF3145 domain-containing protein,1.32
same,Mean Ratio (GDI5755_2d vs DMSO_2d),protein A0A0H3M6F8 Probable 'component linked with the assembly of cytochrome' transport transmembrane ATP-binding protein ABC transporter cydC,1.33
same,Mean_Ratio (GDI5755_3d vs DMSO_3d),"protein A0A0H3M6P3, BCG_1740c (Rv1702c), HNH nuclease domain-containing protein",0.759
same,Mean Ratio,protein A0A0H3M6T8 Uncharacterized protein,1.25
same,Mean Ratio (GDI5755_2d vs DMSO_2d),protein A0A0H3M7A1 Probable conserved membrane protein,1.33
same,Mean Ratio,protein A0A0H3M7A2 (2E)-enoyl-[ACP] glycyltransferase,1.27
same,Mean Ratio,protein A0A0H3M7D2 Quinone oxidoreductase,1.25
same,Mean_Ratio (GDI5755_3d vs DMSO_3d),"protein A0A0H3M7E6, BCG_0206 (Rv0169), MCE-family protein mce1A",0.7
same,Mean_Ratio (GDI5755_3d vs DMSO_3d),"protein A0A0H3M7F0, BCG_0211 (Rv0174), MCE-family protein mce1F",0.7
same,Mean Ratio (GDI5755_2d vs DMSO_2d),protein A0A0H3M7F7 Hemerythrin-like domain-containing protein,1.39
same,Mean Ratio,protein A0A0H3M7J3 UspA domain-containing protein,1.27
same,Mean Ratio,protein A0A0H3M7L3 Succinate dehydrogenase [membrane anchor subunit],1.25
same,Mean Ratio,protein A0A0H3M7L4 Possible transmembrane protein dedA,1.29
same,Mean Ratio,protein A0A0H3M7L9 Probable arsenic-transport integral membrane protein arsC,1.30
same,Mean Ratio,protein A0A0H3M7M0 Posible transcriptional regulatory protein,1.27
same,Mean_Ratio (GDI5755_3d vs DMSO_3d),"protein A0A0H3M7M6, BCG_2876 (Rv2856), Nickel/cobalt efflux system",0.7
same,Mean Ratio,protein A0A0H3M7N4 Possible secreted protease,1.32
same,Mean_Ratio (GDI5755_3d vs DMSO_3d),"protein A0A0H3M7R0, BCG_0355, Possible beta-1,3-glucanase",0.7
same,Mean Ratio,protein A0A0H3M7R4 Probable membrane protein,1.30
same,Mean_Ratio (GDI5755_3d vs DMSO_3d),"protein A0A0H3M7T2, BCG_2131, Uncharacterized protein",0.742
same,Mean_Ratio (GDI5755_3d vs DMSO_3d),"protein A0A0H3M7W0, BCG_2977 (Rv2956), Methyltransferase FkbM domain-containing protein",0.7
same,Mean Ratio,protein A0A0H3M7X0 Probable conserved transmembrane protein,1.28
same,Mean Ratio,protein A0A0H3M7X3 Probable conserved transmembrane protein,1.32
same,Mean_Ratio (GDI5755_3d vs DMSO_3d),"protein A0A0H3M7Y1, BCG_0442 (Rv0404), Probable fatty-acid-CoA ligase fadD30",0.7
same,Mean_Ratio (GDI5755_3d vs DMSO_3d),"protein A0A0H3M7Y6, BCG_2210 (Rv2194), Cytochrome bc1 complex cytochrome c subunit, qcrC",0.747
same,Mean Ratio,protein A0A0H3M8J5 Protein translocase subunit SecE,1.31
same,Mean Ratio (GDI5755_2d vs DMSO_2d),protein A0A0H3M8K7 DUF4333 domain-containing protein,1.33
same,Mean Ratio,protein A0A0H3M8L8 Probable FeIII-dicitrate-binding periplasmic lipoprotein fecB,1.27
same,Mean Ratio,protein A0A0H3M8M0 Conserved hypothetical threonine rich protein,1.26
same,Mean Ratio,protein A0A0H3M8Q9 Probable short-chain type dehydrogenase/reductase,1.27
same,Mean_Ratio (GDI5755_3d vs DMSO_3d),"protein A0A0H3M8T3, BCG_3410 (Rv3340), Probable O-acetylhomoserine sulfhydrylase metC",0.7
same,Mean Ratio,protein A0A0H3M8V5 Possible transcriptional regulatory protein (Probably tetR-family),1.29
same,Mean_Ratio (GDI5755_3d vs DMSO_3d),"protein A0A0H3M8X7, BCG_3431 (Rv3359), Possible oxidoreductase",0.737
same,Mean Ratio (GDI5755_2d vs DMSO_2d),protein A0A0H3M8X9 Probable oxidase,1.33
same,Mean_Ratio (GDI5755_3d vs DMSO_3d),"protein A0A0H3M8Y4, BCG_3436c (Rv3364c), Roadblock/LAMTOR2 domain-containing protein/Serine protease inhibitor",0.75
